For assay [1], the system named is Proliferating keratinocytes (NHEK cells). In words: Human keratinocyte inhibition (3H-thymidine incorporation). To be noted: second passage, inhibition of 3H-thymidine incorporation. It is filed as cell-based. As to the method: Human tumor cells are trypsinized (0.05% trypsin, GIBCO), counted with a hemacytometer and seeded at a concentration of 10,000 cells/well in a 96 well microtiter plate. After allowing cells to attach to the surface overnight, the culture medium is aspirated and replaced with 100 μl of fresh medium. Test agents are diluted to determine dose response at 2× final concentration and added in quadruplicate at 100 μl/well to bring the total volume of each well to 200 μl . The microtiter plate is then incubated at 37° C. 5% CO2 overnight (18-24 hrs) before ^3 H-thymidine is added at a concentration of 0.5 μCi/well in 50 μl culture medium. The plate is incubated again for 4 hrs under the same conditions as above. […] Cells are checked microscopically to determine detachment from surfaces, and plates are then harvested with a cell harvester (PHD, Cambridge Technology, Inc.) Filter papers corresponding to wells are placed in scintillation vials and counted to determine the amount of ^3 H-thymidine incorporated by the cells. […]
Proliferating keratinocytes (NHEK cells purchased from Clonetics, Inc., San Diego, Calif.) in second passage were grown in Keratinocyte Growth Medium (KGM) (Clonetics, Inc.) Cells are trypsinized (0.025% trypsin, Clonetics), counted with a hemacytometer (Scientific Products), and seeded at a concentration of 2,500 cells/well in a 96 well microtiter plate. […]
(In general: Uptake of a labelled nucleoside into DNA is a usual measure of proliferation.)

The subject of the next assay is CEM cells. The assay can be described thus: Human tumor cell growth inhibition (3H-thymidine incorporation), CEM. It is filed as cell-based. To be noted: CCRF-CEM, inhibition of 3H-thymidine incorporation, 18-24 hrs + 4 hrs. An excerpt:
(§1) MCF-7 a human breast tumor cell line and MCF-7/ADR an adriamycin resistant line of MCF-7 cells were obtained from the National Cancer Institute, Frederick, Md. CEM cells (ATCC accession number CCL 119) were obtained from the American Type Culture Collection, Rockville, Md. Human tumor cells are trypsinized (0.05% trypsin, GIBCO), counted with a hemacytometer and seeded at a concentration of 10,000 cells/well in a 96 well microtiter plate. After allowing cells to attach to the surface overnight, the culture medium is aspirated and replaced with 100 μl of fresh medium. Test agents are diluted to determine dose response at 2× final concentration and added in quadruplicate at 100 μl/well to bring the total volume of each well to 200 μl . The microtiter plate is then incubated at 37° C. 5% CO2 overnight (18-24 hrs) before ^3 H-thymidine is added at a concentration of 0.5 μCi/well in 50 μl culture medium. The plate is incubated again for 4 hrs under the same conditions as above. Supernatant is then aspirated and 50μl trypsin (0.05%, GIBCO) is added to each well. Cells are checked microscopically to determine detachment from surfaces, and plates are then harvested with a cell harvester (PHD, Cambridge Technology, Inc.) Filter papers corresponding to wells are placed in scintillation vials and counted to determine the amount of ^3 H-thymidine incorporated by the cells. […]

For another assay, the target named is Protein kinase C (PKC). In words: Protein kinase C inhibition (histone H1 phosphorylation, 32P-ATP). It is filed as biochemical. As to conditions: histone H1 substrate; enzyme from rat brain; 20 μM ATP; pH 7.5; 10 min. As to the method:
The protein kinase C (PKC) assay is designed to duplicated the in vivo conditions required for protein kinase C function. Therefore, pH, salt and cofactor concentrations are similar to physiologic levels. Histone Hl (lysine rich) is used in the assay as the phosphorylation acceptor protein because it is readily available and serves as a good substrate for protein kinase C. The enzyme is prepared from rat brain and is purified to apparent homogeneity as determined by a single band on silver stained SDS-polyacrylamide. Studies on the mechanism of regulation of protein kinase C by phospholipids, DAG and Ca^+2 have been hampered by the physical properties of the lipid cofactors. In the screening assay, phosphatidylserine (PS) and DAG are co-sonicated to form unilamellar and multilamellar vesicles. The concentration of lipids in the assay are suboptimal to maximize the detection potential of the assay for inhibitors. Potential inhibitor compounds are added to the assay in dimethylsulfoxide at three concentrations to give final inhibitor concentrations of 4.3, 43 and 218 μM, respectively. The assay is started with the addition of enzyme and stopped after 10 min by the addition of 25 % trichloroacetic acid (TCA) and 1.0 mg/ml bovine serum albumin (BSA). […] The amount of phosphorylation is determined by the radioactivity measured in a scintillation counter. […]

For assay [2], the system named is PMA-stimulated neutrophils. In words: Neutrophil superoxide anion (O2-) release assay. Format: cell-based. As to conditions: Homo sapiens, 0.5 h, 37° C., 30 min, cytochrome c reduction at 550 nm, read-out: IC50, PMA-stimulated O2- production (respiratory burst). As to the method: Neutrophils are isolated form whole blood collected from human volunteers. All reagent materials are obtained from Sigma Chemical Company with the exception of isotonic saline (Travenol Laboratories, Inc., Deerfield, Ill.) and lymphocyte separation medium (Organon Teknika, Durham, N.C.).
Whole blood is drawn and mixed with sodium heparin (final conc. 10 units/ml) to prevent clotting. An equal volume of dextran (3.0%) in isotonic saline is added, mixed, and allowed to settle for 30 min to bind red blood cells (RBC). Supernatant is removed, underlayered with lymphocyte separation medium and centrifuged for 40 min at 400 ×g in a centrifuge (Beckman GPR, Norcross, Ga.). The pellet is alternately resuspended in 0.2% and 1.6% NaCl to lyse RBCs before washing with Hank's Balanced Salt Solution (HBSS). […]
The neutrophil cell concentration is adjusted to 2×10^6 cells/ml with HBSS before adding 0.8 ml cells to 12×75 mm polypropylene test tubes (Fisher Scientific). […] Optical density (OD) of cytochrome c is read in a spectrophotometer (Shimadzu) at 550 nm. […] Reducing cytochrome c increases its absorbance, and the change in OD of cytochrome c is proportional to the amount of O2^- produced by PMA stimulation. […] Inhibition is expressed as IC50 μM and is the amount of test compound that will inhibit fifty per cent of the PMA-stimulated respiratory outburst, i.e. O2^- production.

Assay [3] concerns MCF-7 human breast tumor cell line. In words: Human tumor cell growth inhibition (3H-thymidine incorporation), MCF-7. It is filed as cell-based. As to conditions: MCF7, inhibition of 3H-thymidine incorporation, 18-24 hrs + 4 hrs.
From the text: as §1

Assay [4] relates to MCF-7/ADR adriamycin resistant line of MCF-7 cells. The assay can be described thus: Human tumor cell growth inhibition (3H-thymidine incorporation), MCF-7/ADR. Format: cell-based. As to conditions: NCI/ADR-RES, inhibition of 3H-thymidine incorporation, 18-24 hrs + 4 hrs.
From the text: as §1

Structures can show the parent of a compound that is named as a salt.

As a reminder, the IC50 is the concentration that gives 50% inhibition. Turning to `O=C1c2ccccc2C(=O)c2c(NCC(O)CNCc3ccccc3)ccc(NCC(O)CNCc3ccccc3)c21` (stereo not shown) [Compound 1b, 1,4-Bis-(3-Benzylamino-2-Hydroxypropylamino)-9, 10 anthracenedione. Hydrochloride salt], the IC50 in assay [1] turned out to be 4 µM; in the assay with CEM cells, 2.7 µM; on Protein kinase C (PKC), 43 µM; in assay [2] it was 3.9 µM; in assay [3], 2.7 µM; in assay [4], 17 µM.
As for `CCCNCC(O)CNc1ccc(NCC(O)CNCCC)c2c1C(=O)c1ccccc1C2=O` (stereo not shown) [Compound 1a, 1,4-Bis-(3-Propylamino-2-Hydroxypropylamino)-9, 10 anthracenedione hydrochloride], the IC50 was 5.6 µM with CEM cells, 199 µM on Protein kinase C (PKC), 2.4 µM in assay [3] and > 25 µM in assay [4].

Source of the values: patent publication US5141957A, “1,4-bis-(amino-hydroxyalkylamino)-anthraquinones for inhibiting protein kinase C” (Sphinx Pharmaceuticals Corporation, priority 1990, dated 1992).
